Laboratory results as given in patent US10866241B2, “Method for the prognosis and treatment of cancer metastasis” (Fundació Institut de Recerca Biomèdica (IRB Barcelona), priority 2012, dated 2020).

Experiments:
[1] = system: bone metastasis; test: Prophylactic treatment for bone metastasis in subject with triple negative breast cancer and increased c-MAF; assay type: in vivo; details: 120 mg SC once monthly for 6 months, then every 3 months for 4 and a half years, with oral calcium and vitamin D
Protocol: A tumor tissue sample is obtained from a subject diagnosed as having triple negative breast cancer. The sample is sectioned into thin slices of tissue and embedded in paraffin. Each paraffin section is mounted on a slide. The slides are incubated with anti-MAF antibody. For visualization and detection of antibodies bound to MAF, antibodies conjugated with fluorescent dye are used. The slides are visualized by providing excitation beams to the fluorescent dyes. Images of fluorescent signals are taken by fluorescent microscopes. The relative expression level of c-MAF in the tumor sample is obtained by comparing the fluorescent signal in the tumor sample to that of a reference sample. The intensity in the tumor sample is correlated with the intensity in the reference sample, wherein a higher intensity in the tumor sample compared to the reference sample correlates with an increased risk of the subject having primary breast cancer metastasis to the bone. Alternatively, 16q22-24 locus,16q23 locus or c-MAF gene amplification or translocation determined using an in situ hybridization technique or similar
Based on the prognosis of increased risk of bone metastasis, the subject is administered the anti-RANKL antibody Denosumab as a prophylactic treatment for bone metastasis. 120 mg of Denosumab is administered to the subject subcutaneously (SC) once monthly for 6 months. […]

[2] = system: osteoclast differentiation of mouse bone marrow-derived precursor cells; test: Osteoclast differentiation from bone marrow cells with conditioned medium, TRAP technique; assay type: cell-based; details: co-incubation with PTHLH antagonist peptide (7-34), 5 μg/ml (FIG. 11c)
Protocol: b) Assay of osteoclast differentiation from mouse bone marrow-derived precursor cells using conditioned medium originated from MCF7 parental cells or cells over-expressing any of the c-MAF isoforms (short—short isoform and long—long isoform). The number of osteoclasts is measured by means of the TRAP technique (>3 Multinucleated cells).
c) Bone marrow cells treated with 50:50 osteoclast differentiation and conditioned media (CM) parental, c-MAF short and Long-expressing parental cells and BoM2 bone metastatic MCF7 cell derivatives or without CM but with human PTHLH antagonist peptide (7-34)(5 μg/ml), The number of osteoclasts is measured by means of the TRAP technique (Ostoclasts are >3 Multinucleated cells, Highlighted by white arrows) and normalized to control.
Without a direct activity of c-MAF in providing bone metastasis functions to breast cancer cells, c-MAF may instead transcriptionally control the activity of genes promoting homing and bone remodeling capabilities to colonize the bone. PTHLH expression was under the control of c-MAF. An observation confirmed by qPCR analysis (FIG. 11a). Further, patient breast cancer metastasis (GSE14020) growing in the bone retained c-MAF expression compared to metastasis elsewhere (FIG. 11b). Moreover, 77% of metastasis expressing MAF and PTHLH above the average were bone metastasis (FIG. 11b). […]

[3] = system: c-MAF expressing MCF7 breast cancer cells; test: Bone metastasis of c-MAF expressing MCF7 cells injected intracardiacally, with or without PTHLH-AN; assay type: in vivo, mouse; details: 6 μg twice a day intraperitoneally in PBS, 47 days, vs PBS control (FIG. 11d,e)
Protocol: d) Parental, c-MAF short and long-expressing parental cells labeled with the luciferase gene were injected into the left ventricle of mouse and bone colonization was analyzed by in vivo bioluminiscent imaging. The mice injected with c-MAF short and long expressing parental cells were treated or not with PTHLH antagonist peptide (7-34) inoculated intraperitoneally (6 μg/animal) twice a day during the course of the experiment. The plot represents the total photon flux ex vivo at the experiment end point, which reflects the number of metastatic cells per lesion (left panel). Osteolytic bone metastasis lesions are depicted (right panel)
e) X-RAY (CT-scan) images of representative osteolytic lesions per group. […] TRAP positive osteoclast cells (Black) along bone tumor interface from lesions were counted in at least four different fields from each independent mouse and plotted with SD values. […] The statistical differences between groups are evaluated by means of the two-tailed wilcoxon test. […]
To test whether PTHLH mediates c-MAF driven bone metastasis in breast cancer cells, we injected c-MAF expressing MCF7 breast cancer cells intracardiacally and evaluated its capacity to establish and grow bone metastasis in the presence or absence of PTHLH-AN during the span of 47 days. […]

Substance | evidence of bone metastasis after 5 years [1] | induction of osteoclast differentiation in vitro by conditioned media from cells expressing c-MAF [2] | extent of the hind limb osteolytic lesions [3] | number of osteoclast (TRAP+ cells) at the metastatic lesion perimeter [3]
Denosumab: fully human monoclonal antibody which binds to RANKL and prevents its activation, CAS number 615258-40-7 | free of any evidence of bone-metastasis |  |  | 
PTHLH-AN: human PTHLH antagonist peptide (7-34Aa) |  | prevented | dramatic reduction | reduction in the number of osteoclast
